The source of these data is US10000516B2 (priority 2015, dated 2018).

Some results are limits rather than exact numbers.

T1 sequence (P00746 26-253): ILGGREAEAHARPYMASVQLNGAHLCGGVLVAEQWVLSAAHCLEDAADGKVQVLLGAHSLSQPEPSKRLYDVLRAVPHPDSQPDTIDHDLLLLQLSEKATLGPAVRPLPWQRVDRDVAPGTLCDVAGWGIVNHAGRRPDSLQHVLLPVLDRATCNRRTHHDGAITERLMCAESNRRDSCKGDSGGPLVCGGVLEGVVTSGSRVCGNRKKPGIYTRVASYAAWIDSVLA

The first test addresses T1, Human Factor D (Homo sapiens, UniProt P00746).
T1 construct: purified from human serum; purchased Complement Technology, Inc; host or cells: human serum (natural protein, not recombinant)
Kind of test: Human Factor D assay (Z-L-Lys-SBzl/DTNB, absorbance at 405 nm). In kind it is biochemical.
Conditions: not given
As to the method: Example 44. Human Factor D Assay
Human Factor D (purified from human serum, Complement Technology, Inc.) at 80 nM final concentration was incubated with test compound at various concentrations for 5 minutes at room temperature in 50 mM Tris, 1M NaCl, pH 7.5. A synthetic substrate Z-L-Lys-SBzl and DTNB (Ellman's reagent) are added to final concentrations of 100 µM each. Absorbance at 405 nm (A405) was recorded at 30 second intervals for 30 minutes using a microplate spectrophotometer. IC50 values are calculated by nonlinear regression of complement Factor D reaction rates as a function of test compound concentration.
Take `CCCCOP(=O)(OCCCC)c1ccc2c(C(C)=O)cn(CC(=O)N3C[C@H](F)C[C@H]3C(=O)NCc3cccc(Cl)c3F)c2c1` [Compound 20, dibutyl 3-acetyl-1-(2-((2S,4R)-2-(3-chloro-2-fluorobenzylcarbamoyl)-4-fluoropyrrolidin-1-yl)-2-oxoethyl)-1H-indol-6-ylphosphonate]: the IC50 was under 1000 nM.

The same test, now with this note: Table 1; Human Factor D 80 nM, purified from human serum; substrate Z-L-Lys-SBzl; read-out: IC50.
With `CCOP(=O)(OCC)c1ccc2c(C(N)=O)cn(CC(=O)N3C[C@H](F)C[C@H]3C(=O)NCc3cccc(Cl)c3F)c2c1` [Compound 15, diethyl 3-carbamoyl-1-(2-((2S,4R)-2-(3-chloro-2-fluorobenzylcarbamoyl)-4-fluoropyrrolidin-1-yl)-2-oxoethyl)-1H-indol-6-ylphosphonate], the 50% inhibitory concentration (IC50) was under 1000 nM.

Consider `CC(=O)c1cn(CC(=O)N2C[C@H](F)C[C@H]2C(=O)NCc2cccc(Cl)c2F)c2cc(P(=O)(O)O)ccc12` [Compound 3, 3-acctyl-1-(2-((2S,4R)-2-(3-chloro-2-fluorobenzylcarbamoyl)-4-fluoropyrrolidin-1-yl)-2-oxoethyl)-1H-indol-6-ylphosphonic acid], for which the IC50 is under 1000 nM. Same read-out and setting: with `NC(=O)c1nn(CC(=O)N2C[C@H](F)C[C@H]2C(=O)NCc2cccc(Cl)c2F)c2cc(P(=O)(O)O)ccc12` [Compound 18, 3-carbamoyl-1-(2-((2S,4R)-2-(3-chloro-2-fluorobenzylcarbamoyl)-4-fluoropyrrolidin-1-yl)-2-oxoethyl)-1H-indazol-6-ylphosphonic acid] the figure was under 1000 nM; with `CCOP(=O)(CC)c1ccc2c(C(C)=O)cn(CC(=O)N3C[C@H](F)C[C@H]3C(=O)NCc3cccc(Cl)c3F)c2c1` (stereo partly drawn) [Compound 24, ethyl 3-acetyl-1-(2-((2S,4R)-2-(3-chloro-2-fluorobenzylcarbamoyl)-4-fluoropyrrolidin-1-yl)-2-oxoethyl)-1H-indol-6-yl(ethyl)phosphinate], under 1000 nM; with `CC(=O)c1cn(CC(=O)N2C[C@H](F)C[C@H]2C(=O)NCc2cccc(Cl)c2F)c2ccc(P(=O)(O)O)cc12` [Compound 10, 3-acetyl-1-(2-((2S,4R)-2-(3-chloro-2-fluorobenzylcarbamoyl)-4-fluoropyrrolidin-1-yl)-2-oxoethyl)-1H-indol-5-ylphosphonic acid], under 1000 nM. Same read-out and setting: with `CCOC(=O)c1nn(CC(=O)N2C[C@H](F)C[C@H]2C(=O)NCc2cccc(Cl)c2F)c2cc(P(=O)(OCC)OCC)ccc12` [Compound 11, ethyl 1-(2-((2S,4R)-2-(3-chloro-2-fluorobenzylcarbamoyl)-4-fluoropyrrolidin-1-yl)-2-oxoethyl)-6-(diethoxyphosphoryl)-1H-indazole-3-carboxylate] the figure was over 10000 nM; with `CCOP(=O)(OCC)c1ccc2c(C(=O)O)nn(CC(=O)N3C[C@H](F)C[C@H]3C(=O)NCc3cccc(Cl)c3F)c2c1` [Compound 12, 1-(2-((2S,4R)-2-(3-chloro-2-fluorobenzylcarbamoyl)-4-fluoropyrrolidin-1-yl)-2-oxoethyl)-6-(diethoxyphosphoryl)-1H-indazole-3-carboxylic acid], over 10000 nM.

For `CCCCOP(=O)(O)c1ccc2c(C(C)=O)cn(CC(=O)N3C[C@H](F)C[C@H]3C(=O)NCc3cccc(Cl)c3F)c2c1` [Compound 21, butyl hydrogen 3-acetyl-1-(2-((2S,4R)-2-(3-chloro-2-fluorobenzylcarbamoyl)-4-fluoropyrrolidin-1-yl)-2-oxoethyl)-1H-indol-6-ylphosphonate], the IC50 is under 1000 nM. Still for that read-out and setting: as for `CCP(=O)(O)c1ccc2c(C(C)=O)cn(CC(=O)N3C[C@H](F)C[C@H]3C(=O)NCc3cccc(Cl)c3F)c2c1` [Compound 27, 3-acetyl-1-(2-((2S,4R)-2-(3-chloro-2-fluorobenzylcarbamoyl)-4-fluoropyrrolidin-1-yl)-2-oxoethyl)-1H-indol-6-yl(ethyl)phosphinic acid], the figure is under 1000 nM; as for `CCOP(=O)(OCC)c1ccc2c(C(N)=O)nn(CC(=O)N3C[C@H](F)C[C@H]3C(=O)NCc3cccc(Cl)c3F)c2c1` [Compound 17, diethyl 3-carbamoyl-1-(2-((2S,4R)-2-(3-chloro-2-fluorobenzylcarbamoyl)-4-fluoropyrrolidin-1-yl)-2-oxoethyl)-1H-indazol-6-ylphosphonate], under 1000 nM; as for `CCOP(=O)(OCC)c1ccc2c(c1)c(C(C)=O)cn2CC(=O)N1C[C@H](F)C[C@H]1C(=O)NCc1cccc(Cl)c1F` [Compound 8, diethyl 3-acetyl-1-(2-((2S,4R)-2-(3-chloro-2-fluorobenzylcarbamoyl)-4-fluoropyrrolidin-1-yl)-2-oxoethyl)-1H-indol-5-ylphosphonate], under 1000 nM. With `CCOP(=O)(c1ccccc1)c1ccc2c(C(C)=O)cn(CC(=O)N3C[C@H](F)C[C@H]3C(=O)NCc3cccc(Cl)c3F)c2c1` (stereo partly drawn) [Compound 23, ethyl 3-acetyl-1-(2-((2S,4R)-2-(3-chloro-2-fluorobenzylcarbamoyl)-4-fluoropyrrolidin-1-yl)-2-oxoethyl)-1H-indol-6-yl(phenyl)phosphinate], the IC50 is under 1000 nM. For the compound `CCOP(=O)(OCC)c1ccc2c(C(C)=O)cn(CC(=O)N3C[C@H](F)C[C@H]3C(=O)NCc3cccc(Cl)c3F)c2c1` [Compound 1, diethyl 3-acetyl-1-(2-((2S,4R)-2-(3-chloro-2-fluorobenzylcarbamoyl)-4-fluoropyrrolidin-1-yl)-2-oxoethyl)-1H-indol-6-ylphosphonate], the IC50 was under 1000 nM. Regarding `CCOP(=O)(OCC)c1cc2c(cc1F)c(C(C)=O)cn2CC(=O)N1C[C@H](F)C[C@H]1C(=O)NCc1cccc(Cl)c1F` [Compound 30, diethyl 3-acetyl-1-(2-((2S,4R)-2-(3-chloro-2-fluorobenzylcarbamoyl)-4-fluoropyrrolidin-1-yl)-2-oxoethyl)-5-fluoro-1H-indol-6-ylphosphonate], the IC50 was under 1000 nM. Still for that read-out and setting: as for `CCOP(=O)(OCOC(=O)OC(C)C)c1ccc2c(C(C)=O)cn(CC(=O)N3C[C@H](F)C[C@H]3C(=O)NCc3cccc(Cl)c3F)c2c1` (stereo partly drawn) [Compound 6, ((3-acetyl-1-(2-((2S,4R)-2-(3-chloro-2-fluorobenzylcarbamoyl)-4-fluoropyrrolidin-1-yl)-2-oxoethyl)-1H-indol-6-yl)(ethoxy)phosphoryloxy) methyl isopropyl carbonate], the figure is under 1000 nM; as for `CC(=O)c1cn(CC(=O)N2C[C@H](F)C[C@H]2C(=O)NCc2cccc(Cl)c2F)c2cc(P(=O)(OCOC(=O)OC(C)C)OCOC(=O)OC(C)C)ccc12` [Compound 4, ((3-acetyl-1-(2-((2S,4R)-2-(3-chloro-2-fluorobenzylcarbamoyl)-4-fluoropyrrolidin-1-yl)-2-oxoethyl)-1H-indol-6-yl)phosphoryl)bis(oxy) bis(methylene) isopropyl dicarbonate], under 1000 nM.

Staying with this test, now noted: Table 3; Human Factor D 80 nM, purified from human serum; substrate Z-L-Lys-SBzl; read-out: IC50 (Stars).
For `CC(=O)c1cn(CC(=O)N2C[C@H](F)C[C@H]2CCNS(=O)(=O)c2ccccc2)c2ccc(P(=O)(O)O)cc12` [Compound 96, (3-acetyl-1-(2-((2R,4R)-4-fIuoro-2-(2-(phenylsulfonamido)ethyl)pyrrolidin-1-yl)-2-oxoethyl)-1H-indol-5-yl)phosphonic acid], the IC50 is over 10000 nM. Same read-out and setting: as for `CC(=O)c1cn(CC(=O)N2CC[C@H]2C(=O)Nc2cccc(C)n2)c2ccc(P(=O)(O)O)cc12` [Compound 101, (S)-(3-acetyl-1-(2-(2-((6-methylpyridin-2-yl)carbamoyl)azetidin-1-yl)-2-oxoethyl)-1H-indol-5-yl)phosphonic acid], the figure is over 10000 nM; as for `CCOP(=O)(OCC)c1nc2c(s1)c(C(N)=O)nn2CC(=O)N1[C@@H]2C[C@@H]2C[C@H]1C(=O)Nc1cccc(-c2cc(C(C)=O)ccc2Cl)c1F` [Compound 104, diethyl (1-(2-((1R,3S,5R)-3-((5′-acetyl-2′-chloro-2-fIuoro-[1,1′-biphenyl]-3-yl)carbamoyl)-2-azabicyclo[3.1.0]hexan-2-yl)-2-oxoethyl)-3-carbamoyl-1H-pyrazolo[3,4-d]thiazol-5-yl)phosphonate], under 1000 nM; as for `CCOP(=O)(OCC)c1ccc2c(c1)c(C(C)=O)cn2CC(=O)N1CC[C@H]1C(=O)Nc1cccc(C)n1` [Compound 100, (S)-diethyl (3-acetyl-1-(2-(2-((6-methylpyridin-2-yl)carbamoyl)azetidin-1-yl)-2-oxoethyl)-1H-indol-5-yl)phosphonate], over 10000 nM. In the case of `CC(=O)c1cn(CC(=O)N2C[C@H](F)C[C@H]2C(=O)NCCCc2ccccc2)c2ccc(P(=O)(O)O)cc12` [Compound 83, (3-acetyl-1-(2-((2S,4R)-4-fluoro-2-((3-phenylpropyl)carbamoyl)pyrrolidin-1-yl)-2-oxoethyl)-1H-indol-5-yl)phosphonic acid], the IC50 was over 10000 nM. In the case of `CC(=O)c1cn(CC(=O)N2C[C@H](F)C[C@H]2C(=O)NCCc2ccccc2)c2ccc(P(=O)(O)O)cc12` [Compound 79, (3-acetyl-1-(2-((2S,4R)-4-fluoro-2-(phenethylcarbamoyl)pyrrolidin-1-yl)-2-oxoethyl)-1H-indol-5-yl)phosphonic acid], the IC50 is over 10000 nM. On the same count and under the same terms, as for `CC(=O)c1cn(CC(=O)N2C[C@H](F)C[C@H]2C(=O)NCCCCc2ccccc2)c2ccc(P(=O)(O)O)cc12` [Compound 87, (3-acetyl-1-(2-((2S,4R)-4-fluoro-2-((4-phenylbutyl)carbamoyl)pyrrolidin-1-yl)-2-oxoethyl)-1H-indol-5-yl)phosphonic acid], the figure is over 10000 nM.

Regarding `CCOP(=O)(OCC)c1nc2c(s1)c(C(N)=O)nn2CC(=O)N1C[C@H](F)C[C@H]1C(=O)Nc1cccc(C)n1` [Compound 146], the IC50 is over 10000 nM.
